Measurements as given in paper PMC9440176, “Novel benzylidene benzofuranone analogues as potential anticancer agents: design, synthesis and in vitro evaluation based on CDK2 inhibition assays” (3 Biotech, 2022).

Columns and labels:
HCT 116 cell lines = assay: Cell cycle analysis (PI, FACS); format: cell-based, Human; settings: standard at 25 μM
Method: The cell cycle analysis was followed where 1 × 10^6 cells were seeded and cultured for 24 h in a 6-well plate containing 2 ml of the media. Cells were then treated with desired concentrations of the given samples that were prepared in media and further incubated for another 24 h. Cells were then harvested and centrifuged at 2000 rpm for 5 min at room temperature and the supernatant was discarded carefully retaining the cell pellet. Cell pellet was then washed by resuspending in 2 ml of 1XPBS. The washing was repeated another time under the same conditions. Further, the supernatant was discarded retaining the pellet. Cells were then fixed by resuspending in 300 µL of Sheath fluid followed by the addition of 1 ml of chilled 70% ethanol drop by drop gently with continuous shaking and one more mL of the same at once. The cells were then stored at 4 °C overnight. Post fixing, the cells were centrifuged at 2000 rpm for 5 min washed twice with 2 ml of cold 1XPBS and suspended in 450 µL of sheath fluid containing 0.05 mg/ml PI (Propidium iodide), 0.05 mg/ml RNase A and incubated for 15 min in the dark (Kasibhatla et al. [2006]).The percentage of cells in various stages of cell cycle both in the treated as well as un-treated populations was determined using FACS Caliber (BD Biosciences, San Jose, CA).

MCF-7 = assay: MTT cytotoxicity assay on MCF-7; format: cell-based; settings: Homo sapiens, MCF7, 24 h, read-out: Inhibition of cell proliferation, IC50, MCF-7
Method: (§1) The monolayer cell culture was trypsinized and the cell count was adjusted to 5.0 × 10^5 cells/ml using respective media containing 10% FBS. To each well of the 96-well microtiter plate, 100 µL of the diluted cell suspension (50,000cells/well) was added. After 24 h, when a partial monolayer was formed, the supernatant was flicked off, the monolayer was then washed once again with the medium and 100 µL of different test concentrations of test drugs were added on to the partial monolayer in microtiter plates. The plates were then incubated at 37 °C for 24 h in 5% CO2 atmosphere. After incubation, the test solutions in the wells were discarded and 100 µL of MTT (5 mg/10 ml of MTT in PBS) was added to each well. The plates were then incubated for 4 h at 37 °C in 5% CO2 atmosphere. The supernatant was then removed and 100 µL of DMSO was added and the plates were gently shaken to solubilize the formed formazan. The absorbance was measured using a microtiter plate reader at a wavelength of 590 nm. The percentage growth inhibition was thus calculated using the following formula and the concentration of the test drug required to inhibit the cell growth by 50% (IC50) values is generated from the dose–response curves for each one of the cell lines (Meerloo et al. [2011]).
(§2) The test compounds were screened for their in vitro cytotoxicity by MTT assay against two cancer cell lines, namely MCF-7, HCT-116 and normal epithelial kidney cells (Vero). Doxorubicin was used as a reference standard.

HCT 116 = assay: MTT cytotoxicity assay on HCT 116; format: cell-based, Human; settings: Homo sapiens, HCT-116, 24 h, read-out: Inhibition of cell proliferation, IC50, HCT 116
Method: as §1, §2

[1] = tested on: normal epithelial kidney cells (Vero); assay: MTT cytotoxicity assay on Vero; format: cell-based; settings: Chlorocebus sabaeus, Vero, 24 h, read-out: Inhibition of cell proliferation, IC50, Vero
Method: as §1, §2

HCT-116 cells = assay: Apoptosis detection by propidium iodide / Annexin V-FITC; format: cell-based, Human; parameters: FACS analysis of apoptosis detection, Viable cells / FACS analysis of apoptosis detection, Early apoptotic / FACS analysis of apoptosis detection, Late apoptotic / FACS analysis of apoptosis detection, Necrotic: unit not given here; settings: 20 μM
Method: The day before induction of apoptosis, 1 × 10^6cells per well were plated on a 6-well plate using respective media with 10% FBS and 1% PenStrep, incubated overnight at 37 °C at 5% CO2.The media was replaced with test solutions of different concentrations in the media containing 10% FBS. The treated cells were incubated for 24 h at normal culture conditions. The cells were further harvested and the well contents were completely transferred into the sterile FACS tubes. The cell contents were centrifuged at 2000 rpm for 5 min and the supernatant was discarded. After centrifugation, the cells were washed twice with cold PBS and then resuspended in 1 ml of binding buffer at a concentration of 1× 10^6 cells/ml. […] of the cell suspension (5× 10^5 cells) were then transferred into a fresh FACS tube (Vermes et al. [1995]). Further, cells were gently mixed with […] of propidium iodide and […] of Annexin V before being incubated for 20 minutes at room temperature in the dark. The cells were immediately analyzed by flow cytometer within a duration of an hour.

[2] = ABTS.+ radical scavenging assay
Method: The assay was performed in a 96-well plate by serial dilution method. A 2 mM ABTS^.+ working solution was prepared in a phosphate buffer (Zheleva-Dimitrova et al [2010]).To this, 200 μL of aqueous potassium per sulfate (70 mM) solution was added and the solution was incubated for 24 h in the dark at room temperature to develop a blue-green color. To 30 μL of ABTS^.+ working solution, 50 μL of different concentrations (3.9–1000 μM) of the test sample solution and 170 μL of phosphate buffer (pH-7.4) were added in a well. The plate was then incubated in the dark at room temperature for 10 min. Then absorbance was measured at 690 nm using Elisa reader. Quercetin and ascorbic acid were used as standards. The percentage scavenging of ABTS^.+ was calculated using the formula, (Control Absorbance–Test Absorbance)*100/(Control Absorbance) and the anti-oxidant activity was expressed in terms of IC50 value.

[3] = DPPH. free radical scavenging assay
Method: DPPH. assay was performed using 96-well plate by serial dilution method. The dilution of methanolic stock solution of the test compounds and standard anti-oxidants was carried out to obtain concentration in the range of 3.9–1000 µM. Quercetin and ascorbic acid were used as standards. To a 100 μL of this solution, 100 μL of 200 µM DPPH^. in methanolic solution was added. The experiment was done in triplicate and the plate was then incubated for 30 min in the dark and later the absorbance was measured at 517 nm using Elisa reader. The percentage DPPH^. Scavenging was calculated using the formula, (Control Absorbance–Test Absorbance)*100/(Control Absorbance). The anti-oxidant activity of the test compounds was expressed in terms of concentration required for 50 percentage inhibition (IC50) (Collins [2005]).

[4] = tested on: MCF-7 and HCT 116 cell lines; assay: MTT cytotoxicity, IC50 range stated over MCF-7 and HCT 116; format: cell-based; settings: range over both cell lines; read-out: Cytotoxic activity IC50 range against MCF 7 and HCT 116
Method: as §1, with “[2011]). […]” for “[2011]).”

CDK2/Cyclin A = CDK2/Cyclin A (Homo sapiens, UniProt P24941); assay: CDK2/cyclin A inhibitory assay, Z'-LYTE FRET kinase assay; format: biochemical; settings: concentration of 100 micro molar; 1000 ng/ml kinase, 1000 µM ATP
Excerpt: Z’-LYTE® technology involves homogeneous assay design based on FRET and is a universal platform for both screening as well as profiling protein kinases. The assay uses a peptide substrate labeled with two different fluorophores, coumarin donor and fluorescein acceptor on each end. These two fluorophores make up a FRET pair, which allows the transfer of energy when both are present on the same molecule. The initial kinase reaction transfers the ϒ-phosphate of ATP to a tyrosine or serine/threonine residue on the substrate. In a secondary reaction, referred to as the development reaction, a site-specific protease recognizes and cleaves only non-phosphorylated peptide, while phosphorylated substrate remains uncleaved. […] Upon excitation of Coumarin at 400 nm, the FRET signal is measured as a ratio between the Coumarin donor emission at 445–460 nm and the fluorescein acceptor emission at 520–535 nm(Lebakken et al. [2007]).
Initial ten-fold and two-fold dilutions of Kinase and ATP concentrations were used to choose the optimal Kinase and ATP concentration based on the % Phosphorylation.
The assay was carried out according to the kit instructions (384 well format). Briefly, 5X kinase buffer [250 mM HEPES (pH 7.5), 50 mM MgCl2, 5 mM EGTA, 0.05% BRIJ-35] was diluted to 1X using distilled water. The phosphor peptide positive control (Z’-LYTE® Tyr 4 phospho-peptide) and the non-phosphorylated negative control (Z’-LYTE® Tyr 4 peptide) were then diluted to 1:500 with 1× kinase buffer to 2 μM. […] Working development solution was then made by diluting 12 μL of the provided stock solution with 388 μL of the provided development buffer. Aliquots (20 μL) of each peptide mixture were then added to the wells of a Corning 3914 solid white microplate in replicates of 8. The development reaction was initiated by the addition of 10 μL of working development-solution to all the wells. Further, the plates were allowed to incubate at room temperature for 60 min. Reactions were then stopped by the addition of 10 μL of stop solution (Jia et al. [2008]).
Reactions were quantitated using a Tecan Robotic Microplate Reader. Reader control, blank subtraction, ratio metric calculations and finally graph plotting were carried out using Gen5™ Data Analysis Software.
The CDK2/Cyclin A assay was carried out as per the manufacturer’s instruction using suitable controls and standard.
The inhibitory assay was carried out using the stock of 10 mM in DMSO. Samples were further serially diluted to obtain concentrations of 100 μM. The concentrations were chosen based on the IC50 values obtained in the MTT assay. A total of 23 analogues were selected for the assay based on their antiproliferative activity. Further, selected compounds were screened and tested against the target CDK2/Cyclin A, and their % phosphorylation and % inhibition were recorded.

SMILES: COc1cc2c(c(OC)c1OC)-c1ccc(OC)c(=O)cc1[C@@H](NC(C)=O)CC2 [Colchicine, reference compound]
- percentage cell population G2/M phase (HCT 116 cell lines): 43.78
- percentage cell population GO/G1 phase (HCT 116 cell lines): 47.39
- percentage cell population S phase (HCT 116 cell lines): 8.61

SMILES: COc1cccc2c1C(=O)c1c(O)c3c(c(O)c1C2=O)C[C@@](O)(C(=O)CO)C[C@@H]3O[C@H]1C[C@H](N)[C@H](O)[C@H](C)O1 [Doxorubicin, reference compound]
- IC50 (MCF-7): 0.68 µM
- IC50 (HCT 116): 8.11 µM
- IC50 [1]: 165 µM
- FACS analysis of apoptosis detection, Early apoptotic (HCT-116 cells): 4.44
- FACS analysis of apoptosis detection, Late apoptotic (HCT-116 cells): 26.61
- FACS analysis of apoptosis detection, Necrotic (HCT-116 cells): 19.86
- FACS analysis of apoptosis detection, Viable cells (HCT-116 cells): 49.09
- apoptotic index (HCT-116 cells): 26.61%

SMILES: COc1cc(OC)c(C2=CCN(C)CC2)c2c1C(=O)/C(=C/c1ccccc1Br)O2 [NMA2]
- IC50 [2]: 66.5 ± 2.02 µM
- IC50 [3]: 83.2 ± 6.42 µM
- IC50 (MCF-7): 26.8 µM
- IC50 (HCT 116): 34.9 µM
- IC50 [1]: 154 µM
- IC50 [4]: 21.2 to 44 µM
- % inhibition on CDK2/cyclin A (CDK2/Cyclin A): 35.350%
